The record followed here is US12410160B2 (Gilead Sciences, Inc., priority 2021, dated 2025).

By IC50 is commonly meant the concentration at which inhibition is half-maximal. A high value points to weaker potency. The term EC50 denotes the concentration at which the effect is half-maximal.

One assay has as its target human KHK-C (Homo sapiens (Human), UniProt P50053). The assay can be described thus: KHK Biochemical Assay (IC50), ADP-Glo, KHK-C. The following applies: average of at least two separate assays. The procedure, abridged:
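Luminescent ADP-Glo read-out of ADP made by His-tagged KHK (BL21 (DE3) expression, Ni-NTA). Enzyme and compound sat together 30 min before ATP/fructose addition, then reacted 4 h at RT in Hepes pH 7.4 buffer with KCl, MgCl2, Triton-X. Quench 1 h, detection 1 h.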
On the technique in general: ADP-Glo first removes unused ATP, then detects ADP through luciferase.

The next assay deals with HepG2 cells. The assay can be described thus: F1P Cell-Based Assay (EC50), 13C6-fructose-1-phosphate in HepG2 cells (cell culture medium or 50% human plasma). As to the method:
F1P Cell-Based Assay (EC50)
Compounds were serially diluted (1:3) in DMSO. The LabCyte ECHO Acoustic dispenser system was used to pre-spot the assay plates (Greiner, Catalog #781091) with 400 nL (200-fold final dilution in 80 μL assay volume) of compound. 25,000 cells/well HepG2 cells (ATCC Catalog #HB-8065) were plated in a 40 μL volume/well in DMEM medium with 4.5 g/L glucose, 1× Penicillin-Streptomycin-Glutamine, and 10% FBS, using a BioTEK dispenser in a biological hood and incubated overnight at 37° C., 5% CO2, 90% humidity. 40 μL/well serum free assay medium (for F1P assay in cell culture medium), or 40 μL/well 100% human plasma (for F1P assay in 50% human plasma) were then added to the plates on the following day, and incubated for 1 hour at 37° C., 5% CO2, 90% humidity. ^13C6-labelled fructose (Sigma, Catalog #587621) in sterile PBS was added to the plates at a final concentration of 5 mM. The plates were incubated for 2 hours at 37° C., 5% CO2, 90% humidity. The assay was quenched by washing the cells with sterile PBS and adding 60 μL/well of 80% (v/v) methanol, 2 mM ammonium acetate and 2.5 μM Crotonyl-CoA, using a BioTEK washer-dispenser system. The plates were then sealed and stored in the −80° C. freezer until ready for RapidFire readout. ^13C6-fructose-1-phosphate in individual wells was quantified using the Agilent RapidFire High-Throughput MS system in negative mode using a […]. Mobile Phase 1 consisted of 20 mM ammonium acetate with 0.05% acetic acid in 100% methanol. Mobile phase 2 consisted of 5 mM octylamine in water (pH adjusted to 5 using acetic acid). F1P signals in individual wells were normalized by crotonyl CoA internal control.

[1] abbreviates: Homo sapiens, HepG2, HepG2 cells, 50% human plasma, read-out: F1P 50% HP EC50.
The mark [2] stands for this setting: Homo sapiens, HepG2, read-out: F1P 10% FBS EC50, HepG2 cells, cell culture medium (10% FBS).
Where [3] appears, read: HepG2 cells, 50% human plasma, read-out: F1P 50% HP EC50.
The mark [4] stands for this setting: read-out: F1P 10% FBS EC50, HepG2 cells, cell culture medium (10% FBS).

Where two headings read alike, the source gives them in different places.

Chain of human KHK-C (P50053 whole entry): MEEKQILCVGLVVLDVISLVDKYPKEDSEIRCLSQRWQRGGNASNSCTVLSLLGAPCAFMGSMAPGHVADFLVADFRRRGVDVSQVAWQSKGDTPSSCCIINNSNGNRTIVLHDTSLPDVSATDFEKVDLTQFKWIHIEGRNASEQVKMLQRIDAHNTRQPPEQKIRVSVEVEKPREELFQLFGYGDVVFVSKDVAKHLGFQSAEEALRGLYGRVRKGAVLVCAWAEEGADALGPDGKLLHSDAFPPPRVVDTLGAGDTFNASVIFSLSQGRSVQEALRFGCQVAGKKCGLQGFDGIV

In the case of `C[C@H]1[C@H](O)CN1c1nc(-c2ccc3c(c2)CC[C@]32COC(=O)N2)c2c(n1)C(F)(F)CC2` (single isomer, unassigned) [Example 475], at human KHK-C, the IC50 was 15 nM. The EC50 came to 207 nM in the assay on HepG2 cells (setting [1]) and 104 nM in the assay with HepG2 cells (setting [2]).
`COc1cc(-c2nc(N3C[C@@H](O)[C@@H]3C)nc3c2CCC3(F)F)cc2c1[C@H](NS(C)(=O)=O)CO2` (single isomer, unassigned) [Example 478] registered an IC50 at human KHK-C of 2.9 nM. Further, the EC50 was 55.5 nM in the assay with HepG2 cells (setting [3]) and 28.5 nM in the assay with HepG2 cells (setting [2]).
As for `C[C@H]1[C@H](O)CN1c1nc(-c2ccc([C@@]3(N)CCOC3)cc2)c2c(n1)C(F)(F)CC2` (single isomer, unassigned) [Example 517], 1 nM corresponded to half-maximal inhibition against human KHK-C (IC50). For the same compound, the values for the EC50 in the assay on HepG2 cells (setting [1]) and in the assay with HepG2 cells (setting [2]) were 6.3 nM and 4.8 nM, respectively.
In the same order, the values of `C[C@H]1[C@H](O)CN1c1nc(-c2cc(F)c3c(c2)CC[C@@H]3NS(C)(=O)=O)c2c(n1)C(F)(F)CC2` (single isomer, unassigned) [Example 526] are 4.9 nM, 114 nM and 30.8 nM.
In the case of `C[C@H]1[C@H](O)CN1c1nc(-c2cc(F)c3c(c2)CC[C@H]3NS(C)(=O)=O)c2c(n1)C(F)(F)CC2` (single isomer, unassigned) [Example 527], half-maximal inhibition against human KHK-C (IC50) required 8 nM. The EC50 in the assay on HepG2 cells (setting [1]) stood at 123 nM; with HepG2 cells (setting [2]), 81.2 nM.
At human KHK-C, `COc1cc(-c2nc(N3C[C@@H](O)[C@@H]3C)nc3c2CCC3(F)F)cc2c1[C@H](NS(C)(=O)=O)CO2` (single isomer, unassigned) [Example 531] had an IC50 of 9 nM. Moreover, the half-maximal effective concentration (EC50) with HepG2 cells (setting [3]) was determined as 439 nM; with HepG2 cells (setting [4]) it was 55.1 nM.
The compound `CC[C@H]1CNC(=O)c2ccc(-c3nc(N4C[C@@H](O)[C@@H]4C)nc4c3CCC4(F)F)cc2O1` (single isomer, unassigned) [Example 592] displayed an IC50 against human KHK-C of 7.3 nM. Also, the EC50 with HepG2 cells (setting [1]) was determined as 56.9 nM; in the assay on HepG2 cells (setting [2]), 15.3 nM.
With `CC[C@@H]1CNC(=O)c2ccc(-c3nc(N4C[C@@H](O)[C@@H]4C)nc4c3CCC4(F)F)cc2O1` (single isomer, unassigned) [Example 593], the IC50 on human KHK-C came out at 7.5 nM. Moreover, the results for the concentration for a half-maximal effect (EC50) in the assay on HepG2 cells (setting [3]) and with HepG2 cells (setting [4]) were 58.7 nM and 22.8 nM, respectively.
In the case of `C[C@H]1[C@H](O)CN1c1nc(-c2ccc3c(c2)O[C@@H](CF)CNC3=O)c2c(n1)C(F)(F)CC2` (single isomer, unassigned) [Example 595], the midpoint of inhibition at human KHK-C, the IC50, lay at 4.4 nM. In addition, the concentration giving a half-maximal response (EC50) worked out at 51 nM with HepG2 cells (setting [1]) and 34.9 nM in the assay on HepG2 cells (setting [2]).
At human KHK-C, `C[C@H]1[C@H](O)CN1c1nc(-c2ccc3c(c2)O[C@H](CF)CNC3=O)c2c(n1)C(F)(F)CC2` (single isomer, unassigned) [Example 596] yielded an IC50 of 2 nM. The EC50 in the assay on HepG2 cells (setting [1]) is 13.6 nM; with HepG2 cells (setting [2]) it was 12.2 nM.
`C[C@H]1CCN1c1nc(-c2ccc3c(c2)[C@@H](NS(C)(=O)=O)CC3)c2c(n1)C(F)(F)CC2` (single isomer, unassigned) [Example 609]: half-maximal inhibition against human KHK-C (IC50) required 1 nM. Moreover, the EC50 was determined as 54.7 nM in the assay on HepG2 cells (setting [1]) and 10.7 nM in the assay with HepG2 cells (setting [2]).
`C[C@H]1[C@H](O)CN1c1nc(-c2ccc3c(c2)[C@H](NS(C)(=O)=O)CO3)c2c(n1)C(F)(F)CC2` (single isomer, unassigned) [Example 615]: at human KHK-C, half-maximal inhibition (IC50) was put at 3.5 nM. Besides, the EC50 turned out to be 30.7 nM in the assay with HepG2 cells (setting [3]) and 16.1 nM in the assay on HepG2 cells (setting [4]).
With `C[C@H]1[C@H](O)CN1c1nc(-c2cccc([C@@H]3CCS(=O)(=O)N3)c2)c2c(n1)C(F)(F)CC2` (single isomer, unassigned) [Example 618], the IC50 against human KHK-C came out at 11.2 nM. Further, the results for the EC50 in the assay on HepG2 cells (setting [3]) and with HepG2 cells (setting [4]) were 24 nM and 18.1 nM, respectively.
On to `COC(=O)N[C@@H]1COc2cc(-c3nc(N4C[C@@H](O)[C@@H]4C)nc4c3CCC4(F)F)ccc21` [Example 815, Methyl N-[(3S)-6-[7,7-difluoro-2-[(2S,3R)-3-hydroxy-2-methyl-azetidin-1-yl]-5,6-dihydrocyclopenta[d]pyrimidin-4-yl]-2,3-dihydrobenzofuran-3-yl]carbamate], for which the EC50 came to 138 nM with HepG2 cells (setting [1]) and 64.3 nM in the assay with HepG2 cells (setting [2]).
